# According to US20080311122A1, “Antagonists of Hmgb1 and/or Rage and Methods of Use Thereof” (Medimmune, LLC, priority 2005, published 2008):
# “Also recorded” adds a separate entry of the source.
# Columns and labels:
# [1] = test system: pDCs; experiment: Stimulation of pDCs isolated from bone marrow, cytokine ELISA; assay type: cell-based, mouse; details: 24 hr
# From the text: Mice and Bone Marrow Cells: C57BL/6 mice were obtained from The Jackson Laboratories and maintained in specific pathogen-free conditions in conventional animal facilities at MedImmune, Inc. TLR9 deficient and MyD88 deficient mice and their litter mate controls were maintained in animal facility of University of Massachusetts Medical School. RAGE deficient mice generated were obtained from Heidelburg Germany and maintained at the University of Massachusetts Medical School. Fresh bone marrow cells were collected and pDCs were isolated from bone marrow cells using miltenyibiotec's plasmacytoid dendritic cell isolation kit. pDCs were re-suspended in Opti-MEM (Invitrogen) and stimulated […] cell/well for 24 hr and cytokine level in the supernatant was measured by ELISA.
# [2] = biological target: CpG A DNA; experiment: Tryptophan emission for CpG-A binding to HMGB1; details: intrinsic tryptophan fluorescence; read-out: apparent Kd for CpG A DNA
# Protocol: Tryptophan emission for CpG-A binding to HMGB1: Fluorescence titrations and spectra of HMGB-1 were carried out at 25° C. with a SPEX Fluoromax-3 spectrofluorimeter, monitoring the HMGB-1 intrinsic tryptophan emission at 347 nm (8 nm bandwidth) with 280 nm excitation (3 nm bandwidth) in a masked capped dual-pathlength (0.2×1.0 cm) quartz cell (Hellma Cells, Inc., Jamaica, N.Y.) upon stepwise addition of CpG-A (0.5 mM) to a 1.7 μM solution of HMGB-1 in 1:10 Dulbecco Phosphate Buffered Saline (PBS) solution (Invitrogen, Carlsbad, Calif.). Complex formation between HMGB-1 and the nucleic acid was monitored by the change in the initial fluorescence of the protein. HMGB-1 fractional saturation was inferred from the ratio of observed fluorescence change to maximal change (at saturation), Flim, for each of the nucleic acid additions. Binding affinity was calculated from graphs of relative fluorescence intensity versus [nucleic acid base]/[protein].The occluded binding site size (n) was derived from the intersection of the extrapolated initial slope with the limiting fluorescence plateau in the equilibrium binding isotherms. The measurements for assessment of Tryptophan emission are reviewed in detail in Lakowicz, 2000, Photochem. Photobiol. 72, 421-437.
# [3] = test system: mouse macrophages; experiment: TNF-a induction in mouse macrophages; assay type: cell-based
# Protocol: TNF-a Induction: To examine mRNA levels macrophages were derived from mouse bone marrow using M-CSF. Macrophages were then stimulated by LPS, E. coli produced recombinant HMGB1 or HMGB1 purified from bovine thymus for indicated length of time and mRNA is measured by Taqman. To examine protein levels thioglycant activated mouse peritoneal macrophages were stimulated with 10 μg/mL of HMGB1 purified from bovine thymus or recombinant HMGB1 generated from E. coli for 24 hr. Cytokines in the supernatant were measured by ELISA.
# [4] = test system: lupus plasma induced IFIT1 mRNA in human PBMCs; experiment: IFIT1 mRNA induction in PBMCs by lupus plasma; assay type: cell-based; details: 20% lupus plasma
# Protocol: Human Cell Culture and Isolation: Fresh PBMCs from healthy donors were prepared by Ficoll-hypaque fractionation and cultured at a density of 2×10^5Cells/0.1 ml in 96-well flat-bottomed plates in culture medium. 20% of lupus plasma was incubated with PBMC for 24 hrs. Some wells included antibodies anti-HMGB1, RAGE Fc or human IgG together with lupus plasma. After 24 hrs, PBMCs were collected and lysed. Total RNA was purified using the 96-well Total RNA Purification Kit (Gentra, Minneapolis, Minn.). 11 μl of this RNA was reverse-transcribed to cDNA in a 20 μl reaction using SuperScript III RNase H-Reverse Transcriptase (Invitrogen, Carlsbad, Calif.). cDNA obtained from each sample was diluted 1:[…] was amplified in a 25 μl real-time PCR reaction using 0.4 μM of sense and antisense primers and the 2×iQ SYBR Green Supermix (Bio-Rad, Hercules, Calif.). GAPDH was used as a housekeeping gene control. Primer sequences for IFIG and GAPDH were: IFIT1 forward, 5′-[…]-3′ (SEQ ID NO: 111); IFIT1 reverse, 5′-AGTCAGCAGCCAGTCTCAG-3′ (SEQ ID NO: 112); GAPDH forward, 5′-CAACGGATTTGGTCGTATT-3′ (SEQ ID NO: 113); GAPDH reverse, 5′-[…]-3′ (SEQ ID NO: 114).
# [5] = test system: AM14 B cells; experiment: DNA immune complex and AM14 cell binding assay; assay type: cell-based, mouse
# Protocol: DNA immune complex and AM14 cell binding assay DNA immune complexes were preformed by mixing spent culture supernatants with 15 μg/ml of PL2-3 (anti-nucleosome IgG2a). AM14 FcγRIIB−/− cells were incubated with a mixture of spent culture supernatants (CML sup.) and 15 μg/ml of PL2-3 (anti-nucleosome IgG2a) on ice. To analyze the effect of RAGE-Fc on the ability of the complexes to bind AM14 B cells, RAGE-Fc (or Fc control) was added to the immune complexes for an additional 2 h on ice. The chromatin immune complexes, or antibody alone, were added to 0.5×10^6 splenic purified AM14 FcγRIIB−/− B. HMGB1 in complexes was detected using an anti-HMGB1-Biotinylated antibody (MedImmune, Inc.) and PL2-3 was detected by an anti-IgG2a-FITC.
# [6] = test system: CpG2216+thymus HMG1 induced IFN-a release (TLR9 signaling); experiment: Inhibition of HMG1 mediated enhancement of TLR9 signaling, CpG2216 + thymus HMG1 in bone marrow cells; assay type: cell-based; details: mouse bone marrow cells
# Protocol: HMGB1+TLR Ligand: Freshly isolated bone marrow cells were stimulated with TLR ligands (TLR3:PolyIC@5 μg/mL; TLR4:LPS@2.5 ng/mL; TLR5:flagellin@0.25 μg/mL; TLR7:polyU@4 μg/mL or R837@5 μg/mL; TLR9:CpG2216@1 μM) with or without presence of thymus HMGB1 (10 μg/mL) for 24 hr. Cytokines in the supernatant were measured by ELISA.
# Inhibition of HMG1 Mediated Enhancement of TLR Signaling: Freshly isolated bone marrow cells were stimulated with TLR9 ligand CpG2216 (0.3 μM) and thymus HMGB1 (10 μg/mL) in the presence of different concentration of the anti-HMGB1 mAb E11 or control human IgG for 24 hr and IFN-a in the supernatant was measured by ELISA. CpG2216, HMGB1 and nonstimulatory DNA were used alone or in combination as controls for the assay.
# [7] = test system: AM14 B cells; experiment: AM14 proliferation assay; assay type: cell-based, mouse
# Protocol: AM14 proliferation assay: Purified AM14 B cells were preincubated with RAGE-Fc or control human IgG1 for 30 min at 37° C., and stimulated with 0.1 μg/ml of PL2-3 for 24 h at 37° C. Cells were then pulsed with [^3H]thymidine for 6 h.
# [8] = test system: native activated HMG1 stimulated IL-6 release from human PBMCs; experiment: Inhibition of cytokine release from PBMCs, native activated HMG1; assay type: cell-based
# Protocol: Inhibition of Cytokine Release: Human peripheral blood mononuclear cells (PBMCs) were isolated from the peripheral blood of healthy volunteers by a density gradient centrifugation. Freshly drawn heparinized whole blood was mixed with two volume of PBS. The diluted blood was gently layered on the surface of Histopaque-1077 (Sigma-Aldrich) and centrifuged at 400×g, at RT for 30 minute. PBMCs were collected from the interface between the plasma and the density gradient solution. After washing in PBS 3×, the purified PBMCs were resuspended in RPMI-1640 medium (GIBCO BRL) containing 100 U/ml penicillin, 100 μg/ml streptomycin and […] β-mercaptoethanol. 1×10^5 of cells was added in each well of 96-well cell culture plates. […]
# The culture media were analyzed for inflammatory cytokines using Beadlyte human multi-cytokine flex kit from Upstate by Luminex 100 (Luminex Corp.). Proinflammatory cytokines TNF-α, IL-6, IL-1β and IL-12 (p40) were measured for cells stimulated with recombinant HMG1. In addition, TNF-α, IL-6, IL-1β and IL-8 were measured for cells stimulated with native activated HMG1.
# Cytokine release data is presented as mean of triplicates±standard deviations. […] It was calculated by PRISM program.
# [9] = test system: LPS+HMG1 induced TNF-a release (TLR4 signaling); experiment: Inhibition of HMG1 mediated enhancement of TLR4 signaling, LPS+HMG1 TNF-a release; assay type: cell-based, mouse
substance,measurement,setting,value
5′-GGGGGACGATCGTCGGGGGG-3′ [CpG DNA],IFN-α production,[1],32 ± 5 pg/mL
same,TNF-α production,[1],43 ± 5 pg/mL
HMGB1: HMGB1 purified from bovine thymus,Kd,[2],70 nM
same,induction of TNF-a mRNA levels,"[3]; 2 hours, listed as native HMG1",~30 fold
same,induction of TNF-a mRNA levels,"[3]; 2 hours, listed as thymus HMG1",roughly 30 fold
same,induction of TNF-a mRNA levels,[3]; 8 hour,~15 fold
same,increase in TNF-a protein levels,"[3]; 24 hours, supernatant",no induction
same,IFN-α production,[1],ineffective
"RAGE-Fc: RAGE-Fc fusion protein (soluble RAGE), RAGE antagonist",inhibition of induction of IFIT1 mRNA by lupus plasma,[4],approx 75%
same,inhibition of binding of chromatin/DNA immune complexes to AM14 B cells,[5],blocks binding of chromatin IC to AM14 B cells; also recorded: inhibited binding of HMGB1-containing DNA immune complexes to the surface of B cells
same,inhibition of IFN-a release induced by CpG + thymus HMG1,[6],inhibit IFN-a release
same,inhibition of IFN-a release induced by CpG + thymus HMG1,[6]; listed as RAGE/Fc,significantly blocked CpG/HMGB1 complex induced IFN-α
same,inhibition of IFN-a release induced by CpG alone,[6]; listed as RAGE/Fc,did not block CpG-A induced IFN-α production
same,inhibition of IFN-a release induced by CpG + thymus HMG1,[6]; listed as Rage/Fc,to a less extent; also recorded: inhibited the release of INF-a induced by CpG2216+thymus HMG1
same,inhibition of IFN-a release induced by CpG alone,[6]; listed as Rage/Fc,"Neither E11, G4 or Rage/Fc inhibited"
same,"effect on TLR2, TLR4 ligand induced proliferation or BCR mediated B cell activation",[7],had no effect
same,inhibition of DNA immune complex (PL2-3) dependent proliferation of AM14 B cells,[7]; thymidine incorporation,reduced proliferation; also recorded: markedly inhibited PL2-3-dependent proliferation of AM14 B cells
same,block of IL-6 release induced by native activated HMG1,[8],able to block IL-6 released induced by native activated HMG1
same,inhibition of TNF-a release induced by LPS+HMG1,[9],inhibits the release of TNF-a induced by LPS+HMG1; also recorded: could be blocked; also recorded: inhibit the release of TNFa induced by LPS+HMG1
"lipopolysaccharide [LPS, reference compound]",induction of TNF-a mRNA levels,[3]; 2 hours,~66 fold
same,induction of TNF-a mRNA levels,[3]; 8 hour,~7 fold
